Patent US11753407B2, “Compounds for treating spinal muscular atrophy” (PTC Therapeutics, Inc., priority 2012, dated 2023)

Key:
[1] = tested on: SMN2 minigene mRNA (SMN2-A minigene) in HEK293H cells; experiment: SMN2 minigene mRNA splicing RT-qPCR assay in cultured cells; assay type: cell-based, human; settings: for SMN2 minigene FL mRNA: HEK293H cells with SMN2 minigene, rising concentrations, 24 hr, relative to vehicle (FIG. 3); for EC (1.5-fold increase): Homo sapiens, HEK293-H, concentration increasing full length SMN2 mRNA 1.5-fold relative to vehicle-treated cells, HEK293H cells with SMN2-A minigene, 24 hours, 7-point concentration data, read-out: EC1.5x for production of full length SMN2 mRNA; for exon 7 inclusion: SMN2 minigene, relative to untreated cells (FIG. 3)
How it was run: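 Cells are seeded, left to attach 4-6 h, then dosed with test compound across seven concentrations and incubated 24 h. Lysates undergo RT-qPCR with primers/probe specific to the exon 7-containing minigene transcript, co-amplified with GAPDH. Fold change over vehicle is calculated, and EC1.5× marks the 1.5-fold point.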

[2] = tested on: SMN2 mRNA in tissues of C/C-allele SMA mice; experiment: Endogenous SMN2 mRNA end-point semi-quantitative RT-PCR splicing assay in animal tissues; assay type: in vivo; settings: brain and muscle, BID oral gavage 10 days, end-point RT-PCR (FIG. 7)
Method: The endpoint reverse transcription-PCR (RT-PCR) splicing assay is used to quantify the levels of the full length and Δ7 SMN2 mRNA in tissues from mice treated with test compound.
Protocol. C/C-allele SMA mice are treated by oral gavage BID for 10 days with test compounds in 0.5% HPMC and 0.1% Tween-80. Tissue samples are collected and snap frozen for RNA purification.
Tissue samples (20-40 mg) are homogenized in QIAzol Lysis Reagent for 2 minutes at 20 Hz in the TissueLyser II using one stainless steel bead. After addition of chloroform, the homogenate is separated into aqueous and organic phases by centrifugation. RNA partitioned to the upper, aqueous phase is extracted and ethanol is added to provide appropriate binding conditions. The sample is then applied to the RNeasy spin column from the RNeasy Mini Kit, where total RNA binds to the membrane. The RNA is eluted in RNase-free water then stored at −20° C.
SMN2 spliced products are identified using the following amplification primers in Table 8. These primers hybridize to a nucleotide sequence in exon 6 (SMN Forward D, SEQ ID NO. 13) (nucleotide 22 to nucleotide 46) and exon 8 (SMN Reverse C, SEQ ID NO. 12), common to human SMN1 and SMN2 mRNA.
To synthesize cDNA, combine 1 μL of RNA solution (25-50 ng), 4 μL of 5× iScript reaction mix, 1 μL of reverse transcriptase, and 10 μL of water are combined and incubates 25° C. for 5 min followed by 42° C. for 30 min followed by 85° C. for 5 min. The cDNA solution is stored at −20° C.
To perform endpoint PCR, 5 μL of cDNA, 0.2 μL of 100 μM forward primer, 0.2 μL of 100 μM reverse primer, and 22.5 μL of polymerase super mix are combined in a 96 well semiskirted PCR plate. PCR is carried out at the following temperatures for the indicated time: Step 1: 94° C. (2 min), Step 2: 94° C. (30 sec), Step 3: 55° C. (30 sec), Step 4: 68° C. (1 min), then repeat Steps 2 to 4 for a total of 33 cycles, then hold at 4° C.
10 μL of each PCR sample is electrophoretically separated on a 2% agarose E-gel for 14 minutes stained with dsDNA staining reagents (e.g., ethidium bromide) and visualized using a gel imager.

Row | SMILES | SMN2 minigene FL mRNA [1] | EC (1.5-fold increase) [1] [µM] | exon 7 inclusion [1] | SMN2 FL mRNA [2] | SMN2 Δ7 mRNA [2]
1 | COc1ccc(-c2cc(=O)n3cc(N4CCNCC4)ccc3n2)cc1OC [Cpd 6, 2-(3,4-dimethoxyphenyl)-7-(piperazin-1-yl)-4H-pyrido[1,2-a]pyrimidin-4-one] | increased SMN2 minigene FL mRNA at low concentrations | < 0.1 | fully restored exon 7 inclusion | progressively more SMN2 FL mRNA | less SMN2 Δ7 mRNA
2 | Cc1cn2nc(-c3cc(=O)n4cc(N5CCN(C)CC5)ccc4n3)cc2c(C)n1 [Cpd 170, 2-(4,6-dimethylpyrazolo[1,5-a]pyrazin-2-yl)-7-(4-methylpiperazin-1-yl)-4H-pyrido[1,2-a]pyrimidin-4-one] | increased SMN2 minigene FL mRNA at low concentrations | < 0.1 | fully restored exon 7 inclusion | progressively more SMN2 FL mRNA | less SMN2 Δ7 mRNA
